Structures are written as SMILES.

The nature of the data set: RP, Waters ACQUITY UPLC BEH C18, 50 × 2.1 mm, 1.7 µm, 40 °C, 0.6 mL/min, estimated dead time 0.18 min; A: water + 0.1% formic acid, pH 3; B: acetonitrile + 0.1% formic acid, pH 3; gradient (min/%B) 0/5 7/100 8/100. Particulars: stereoisomer not certain.

For `CC1(C)CCC[C@]2(CO)C1CC[C@@]13C[C@@H](CCC12)[C@@](O)(COC(=O)/C=C/c1ccc(O)c(O)c1)C3` (some centres not stated), the LC retention time is 3.4 min. Regarding `CC(C)C1CCC2(C)C3CCC45CCCC4C2(CCC(=O)C2(C)COC4(C)CCC2O4)C1N5C3` (configuration not stated), the LC retention time was 2.86 min.

As to `CC(O)c1cncc2c(=O)n3c(cc12)-c1[nH]c2ccccc2c1CC3` (configuration not stated), the LC retention time was 3.25 min.

Take `CC1=C(O)C(=O)C=C2C1=CC=C1[C@@]2(C)CC[C@@]2(C)[C@@H]3C[C@](C)(C(=O)O)CC[C@]3(C)CC[C@]12C`: the LC retention time was 5.33 min. For the compound `COc1ccc(-c2oc3cc(O)c(OC)c(O)c3c(=O)c2OC)cc1`, the LC retention time is 3.08 min. Consider `CCN1CC2(COC(=O)c3ccccc3NC(=O)CCC(=O)O)CCC(OC)C34C5CC6C(OC)CC(O)(C5C6OC)C(O)(C(OC)C23)C14` (configuration not stated), for which the LC retention time was 2.22 min. To `COc1cc(/C=C/c2ccc(OCC=C(C)C)cc2)cc(OC)c1` belongs 5.37 min; to `COc1ccc(C2Oc3c(c(O)cc(O)c3C3C(=O)c4c(O)cc(O)cc4OC3c3ccc(O)cc3)C(=O)C2O)cc1O` (configuration not stated), 1.69 min; to `C=C1[C@@H](O)C[C@H]2C(C)(C)C[C@H](O)C[C@]2(C)[C@H]1CC1C(C)=CCC2C(=O)C(OC)=CC(=O)C21c1cc(=O)c2c(O)cc(O)cc2o1` (some centres not stated), 0.702 min. Regarding `C=CCc1ccc(O)c(-c2cc(CC=C)ccc2O)c1` [5,5'-bis(prop-2-en-1-yl)-[1,1'-biphenyl]-2,2'-diol], the LC retention time is 2.78 min. `CC(C)(O)/C=C/C(=O)[C@](C)(O)[C@H]1[C@H](O)C[C@@]2(C)C3CC=C4C(C=C(O)C(=O)C4(C)C)[C@]3(C)C(=O)C[C@]12C` (some centres not stated): the LC retention time was 3 min. With `C/C=C1\CN2CCc3c([nH]c4ccccc34)[C@@H]2C[C@@H]1/C(=C\OC)C(=O)OC`, the LC retention time was 2.41 min. Regarding `CC[C@H]1C[C@H]2CN3CCc4c([nH]c5ccc(OC)cc45)[C@](C(=O)OC)(C2)C13`, the LC retention time was 2.02 min. Regarding `COc1cc(CC[N+](C)(C)C)c2ccc3cc4c(c5c3c2c1OC5)OCO4`, the LC retention time is 0.975 min. On to `Cn1c(Cc2ccccc2)nc(=O)c2ccccc21` [2-benzyl-1-methyl-1,4-dihydroquinazolin-4-one], for which the LC retention time was 1.8 min. Take `CC1CCC2(OC1)OC1CC3C4C(O)C(=O)C5(O)C(O)C(O)C(O)C(O)C5(C)C4CCC3(C)C1C2C` (configuration not stated): the LC retention time was 3.19 min.

Turning to `COc1ccc(-c2cc(=O)c3c(O)cc(O)cc3o2)cc1-c1c(O)cc(O)c2c(=O)cc(-c3ccc(O)cc3)oc12`, the LC retention time was 3.1 min.

(Values after the RepoRT retention time repository.)
